What was measured:
[1] = test system: H. pylori; test: Antimicrobial activity against H. pylori, MIC by agar dilution method; format: cell-based; conditions: Helicobacter pylori
[2] = molecular target: T1, proton pump (H+/K+-ATPase) (Sus scrofa, UniProt P19156); test: Inhibitory effects on proton pump (H+/K+-ATPase) activity, gastric vesicles, malachite green Pi detection; format: biochemical; conditions: hog gastric vesicles, 37° C. 40 minutes, pH 7.4
T1 construct: Gastric vesicles were prepared from a hog stomach; from tissue; host or cells: hog stomach (gastric vesicles, method of Rabon et al. 1988)
T1 sequence (P19156 2-1034 limits assumed): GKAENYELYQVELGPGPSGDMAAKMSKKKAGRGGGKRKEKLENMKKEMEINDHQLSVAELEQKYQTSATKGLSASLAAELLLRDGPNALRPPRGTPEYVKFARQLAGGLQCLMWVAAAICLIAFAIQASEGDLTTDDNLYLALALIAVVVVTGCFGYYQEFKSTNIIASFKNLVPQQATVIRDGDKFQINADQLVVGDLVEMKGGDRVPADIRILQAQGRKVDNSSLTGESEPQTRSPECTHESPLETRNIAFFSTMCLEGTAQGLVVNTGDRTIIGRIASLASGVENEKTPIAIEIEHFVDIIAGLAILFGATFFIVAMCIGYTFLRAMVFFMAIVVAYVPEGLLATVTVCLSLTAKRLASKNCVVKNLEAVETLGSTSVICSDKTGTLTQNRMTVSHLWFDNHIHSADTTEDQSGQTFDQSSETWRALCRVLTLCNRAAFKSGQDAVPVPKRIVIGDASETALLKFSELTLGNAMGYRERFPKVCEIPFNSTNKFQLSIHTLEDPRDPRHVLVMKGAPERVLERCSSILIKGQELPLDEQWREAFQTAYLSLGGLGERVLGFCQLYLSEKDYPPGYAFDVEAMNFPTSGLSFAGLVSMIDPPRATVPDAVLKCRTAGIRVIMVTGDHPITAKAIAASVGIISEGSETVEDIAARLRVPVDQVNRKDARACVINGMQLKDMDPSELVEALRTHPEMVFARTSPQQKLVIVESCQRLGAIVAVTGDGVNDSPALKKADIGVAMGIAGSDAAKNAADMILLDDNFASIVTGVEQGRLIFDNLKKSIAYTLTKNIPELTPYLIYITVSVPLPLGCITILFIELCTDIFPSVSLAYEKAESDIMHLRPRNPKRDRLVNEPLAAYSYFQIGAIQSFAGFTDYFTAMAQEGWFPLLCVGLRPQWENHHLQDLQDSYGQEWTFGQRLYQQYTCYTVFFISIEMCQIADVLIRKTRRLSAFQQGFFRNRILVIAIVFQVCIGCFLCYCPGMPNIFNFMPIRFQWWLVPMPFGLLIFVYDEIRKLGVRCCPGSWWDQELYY
T1 sequence (P18434 whole entry partner): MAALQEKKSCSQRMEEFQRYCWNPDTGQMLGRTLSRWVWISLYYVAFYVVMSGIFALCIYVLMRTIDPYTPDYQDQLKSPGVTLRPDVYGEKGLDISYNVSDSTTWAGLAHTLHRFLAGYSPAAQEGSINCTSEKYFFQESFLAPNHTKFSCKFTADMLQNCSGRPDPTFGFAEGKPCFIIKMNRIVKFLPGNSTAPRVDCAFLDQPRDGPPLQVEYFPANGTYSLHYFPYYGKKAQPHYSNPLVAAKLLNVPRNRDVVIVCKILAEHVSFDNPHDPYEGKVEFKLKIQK
Description: The inhibitory effects on proton pump (H^+/K^+-ATPase) activity of the compounds prepared in Examples 2, 8 and 22 were measured as follows.
Gastric vesicles were prepared from a hog stomach in accordance with the known method (Edd C. Rabon et al., Preparation of Gastric H^+, K^+-ATPase., Methods in enzymology, vol. 157 Academic Press Inc., (1988), pp. 649-654). The protein contents of gastric vesicles thus prepared were quantitatively measured with Bicinchoninic Acid (BCA) kit (Thermo Co.).
80 ul of (a predetermined concentration of a test compound, 0.5% DMSO, 2.5 mM MgCl2, 12.5 mM KCl, 1.25 mM EDTA, 60 mM Tris-HCl, pH7.4) was added to each well of 96-well plate. 10 ul of the reaction solution containing gastric vesicles (60 mmol/l, Tris-HCl buffer solution, pH 7.4), and 10 ul of Tris buffer solution containing adenosine triphosphate (10 mM ATP, Tris-HCl buffer solution, pH 7.4) were added to each well and subjected to enzymatic reaction at 37° C. for 40 minutes. […] The amount of monophosphate (Pi) in the reaction solution was measured at 570 nm by using a microplate reader (FLUOstar Omega, BMG Co.). The inhibition rate (%) was measured from the activity value of the control group and the activity value of the test compound at various concentrations, and the concentration (IC50) that inhibits H^+/K^+-ATPase activity by 50% was calculated from each % inhibition value of the compounds using Logistic 4-parameter function of Sigmaplot8.0 program.

[3] = test system: indomethacin-induced gastric damage in rats; test: Gastric damage inhibitory activity against indomethacin-induced gastric damage in rats; format: in vivo, Sprague Dawley (SD) rats; conditions: 2.0 mg/kg oral, 1 hour before indomethacin 80 mg/kg
Description: The inhibitory activity against the gastric damage of the compounds prepared in Examples 2 and 8 was measured using indomethacin model (Chiou., Et al., 2005, gastroenterology, 128, p 63-73). Male Sprague Dawley (SD) rats (body weight 180-220 g) was divided into 5 groups (n=10) and fasted for 24 hours with free access to water. Control group was orally administered with 5 mL/kg of 0.5% methyl cellulose (MC) aqueous solution, and the other groups were orally administered with test compounds suspended in 0.5% methyl cellulose (MC) aqueous solution at a dose of 2.0 mg/kg/5 ml. For comparison, the compound of Example 134 (Comparative Example 1) and the compound of Example 165 (Comparative Example 2) in International Patent Publication No. WO 2006/036024 were orally administered at a dose of 2.0 mg/kg/5 ml by suspending 0.5% methylcellulose (MC) aqueous solution, respectively. […] The incised stomach was placed on a fixture, fixed by a fixing pin while spreading out using a forcep and then the gastric damage area was measured. % Inhibitory activity of test compounds was calculated according to the following Equation 2, and the results are shown in Table 3. % Inhibitory activity of test compound=[1−(gastric damage area % of the group treated with test compounds)/(gastric damage area % of control group)]×100 [Equation 2]

CNCc1cn(S(=O)(=O)c2cccc(F)c2)c(-c2ccc(F)cc2F)c1OC.Cl [Example 8, 1-(5-(2,4-difluorophenyl)-1-((3-fluorophenyl)sulfonyl)-4-methoxy-1H-pyrrol-3-yl)-N-methylmethanamine hydrochloride]
MIC ([1]; strain 45 (HPKTCC B0004)): 75 µg/mL | MIC ([1]; strain 51 (HPKTCC B0006)): 75 µg/mL | MIC ([1]; strain 52 (HPKTCC B0007)): 75 µg/mL | MIC ([1]; strain 92-33-1 (HPKTCC B0182)): 75 µg/mL | MIC ([1]; strain 92-82-1 (HPKTCC B0233)): 75 µg/mL | MIC ([1]; strain 92-157 (HPKTCC B0152)): 75 µg/mL | MIC ([1]; strain 118 (HPKTCC B0017)): 150 µg/mL | MIC ([1]; strain 126 (HPKTCC B0020)): 150 µg/mL | MIC ([1]; strain 127 (HPKTCC B0021)): 75 µg/mL | MIC ([1]; strain 133 (HPKTCC B0023)): 37.5 µg/mL | MIC ([1]; strain 134 (HPKTCC B0024)): 75 µg/mL | MIC ([1]; strain 138 (HPKTCC B0026)): 75 µg/mL | MIC ([1]; strain 156 (HPKTCC B0035)): 150 µg/mL | MIC ([1]; strain 159 (HPKTCC B0037)): 150 µg/mL | MIC ([1]; strain 164 (HPKTCC B0040)): 75 µg/mL | MIC ([1]; strain 183 (HPKTCC B0047)): 150 µg/mL | MIC ([1]; strain 193 (HPKTCC B0051)): 75 µg/mL | MIC ([1]; strain 198 (HPKTCC B0055)): 75 µg/mL | MIC ([1]; strain 205 (HPKTCC B0058)): 75 µg/mL | MIC ([1]; strain 210 (HPKTCC B0061)): 75 µg/mL | MIC ([1]; strain 221 (HPKTCC B0068)): 75 µg/mL | MIC ([1]; strain 228 (HPKTCC B0071)): 75 µg/mL | MIC ([1]; strain 235 (HPKTCC B0074)): 75 µg/mL | MIC ([1]; strain 236 (HPKTCC B0075)): 75 µg/mL | MIC ([1]; strain 302 (HPKTCC B0088)): 75 µg/mL | MIC ([1]; strain 26695 (HPKTCC B0100)): 75 µg/mL | MIC ([1]; strain 26695 CHGKG (HPKTCC B3412)): 150 µg/mL | MIC ([1]; strain CH24 (HPKTCC B0508)): 75 µg/mL | MIC ([1]; strain CH94 (HPKTCC B0582)): 37.5 µg/mL | MIC ([1]; strain CH173 (HPKTCC B0494)): 75 µg/mL | MIC ([1]; strain CH175 (HPKTCC B0496)): 75 µg/mL | MIC ([1]; strain CH189 (HPKTCC B0498)): 75 µg/mL | MIC ([1]; strain CH192 (HPKTCC B0500)): 75 µg/mL | MIC ([1]; strain CH272 (HPKTCC B0516)): 75 µg/mL | MIC ([1]; strain CH369 (HPKTCC B0522)): 75 µg/mL | MIC ([1]; strain CH381 (HPKTCC B0524)): 75 µg/mL | MIC ([1]; strain CH498 (HPKTCC B0536)): 75 µg/mL | MIC ([1]; strain CH502 (HPKTCC B0537)): 75 µg/mL | MIC ([1]; strain CH523 (HPKTCC B0541)): 75 µg/mL | MIC ([1]; strain CH541 (HPKTCC B0548)): 75 µg/mL | MIC ([1]; strain CH588 (HPKTCC B0556)): 75 µg/mL | MIC ([1]; strain CH609 (HPKTCC B0558)): 75 µg/mL | MIC ([1]; strain CH612 (HPKTCC B0559)): 75 µg/mL | MIC ([1]; strain CH631 (HPKTCC B0560)): 75 µg/mL | MIC ([1]; strain CH635 (HPKTCC B0562)): 75 µg/mL | MIC ([1]; strain CH674 (HPKTCC B0564)): 75 µg/mL | MIC ([1]; strain CH1056 (HPKTCC B0487)): 75 µg/mL | MIC ([1]; strain CJH7 (HPKTCC B0606)): 75 µg/mL | MIC ([1]; strain CJH8 (HPKTCC B0608)): 37.5 µg/mL | MIC ([1]; strain CJH9 (HPKTCC B0610)): 75 µg/mL | MIC ([1]; strain CJH10 (HPKTCC B0587)): 75 µg/mL | MIC ([1]; strain CJH13 (HPKTCC B0589)): 75 µg/mL | MIC ([1]; strain CJH31 (HPKTCC B0594)): 75 µg/mL | MIC ([1]; strain CJH33 (HPKTCC B0595)): 75 µg/mL | MIC ([1]; strain CJH43 (HPKTCC B0596)): 75 µg/mL | MIC ([1]; strain CJH50 (HPKTCC B0599)): 75 µg/mL | MIC ([1]; strain G88001 (HPKTCC B0722)): 75 µg/mL | MIC ([1]; strain G88007 (HPKTCC B0725)): 75 µg/mL | MIC ([1]; strain J99 (HPKTCC B0748)): 75 µg/mL | MIC ([1]; strain SS1-P-4′ (HPKTCC B3392)): 37.5 µg/mL | IC50 [2]: 24 nM | % inhibitory activity (gastric damage area) [3]: 92.2%

Source: patent US10100010B1, “4-methoxy pyrrole derivatives or salts thereof and pharmaceutical composition comprising the same” (Daewoong Pharmaceutical Co., Ltd., priority 2015, dated 2018)
